Reference: EP0461827B1, “Hair restorer” (KABUSHIKI KAISHA HAYASHIBARA SEIBUTSU KAGAKU KENKYUJO, priority 1990, dated 1991)

How the values were obtained:
rabbits = test: Hair regeneration on depilated dorsum of rabbits, lotion applied once daily; format: in vivo; details: 1% in 50% aqueous ethanol with 2% propyleneglycol, pH 6.7, 1ml once every day, difference to untreated area; for Mean remainder of hair length (mm) 10th (day): 10th day after application; for Mean remainder of hair length (mm) 20th (day): 20th day after application; for Mean remainder of hair length (mm) 30th (day): 30th day after application
Description: Either of an α-glycosyl-L-ascorbic acid or an α-glycosyl bioflavonoid prepared by the method in Example of Preparation 1-8 was dissolved to give a concentration of 1% in a 50% aqueous ethanol solution containing 2% propyleneglycol, and the mixture was adjusted to pH 6.7 by the addition of 6N sodium hydroxide to obtain a solution in hair lotion form. As control, a solution in hair lotion form was prepared similarly as above, except that α-glycosyl-L-ascorbic acid and α-glycosyl bioflavonoid were replaced with either of intact L-ascorbic acid, bioflavonoid and refined water.
The dorsum surgace of rabbits was sectioned into four areas, 5cm^2 each, i.e. two areas near at head side and two areas near at tail side which were respectively bisymmetrical about the vertebral columns of the rabbits, and the four areas were depilated by applying thereto silver cream (a depilatory agent) and subjecting them to brief standing. The depilated areas were first sufficiently washed with water, then the depilated areas of the right area near at head side, the left area near at head side, and the right area near at tail side were respectively applied once every day by using a paintbrush with 1ml of the test solution, 1ml of the control solution containing refined water, and 1ml of the control solution containing L-ascorbic acid or bioflavonoid. Furthermore, the left area near at tail side was untreated.
The application of each solution was started on the second day after the depilation, and the newly regenerated hairs were depilated to count on the 10th, 20th and 30th days after the application. The length of 10 coarse hairs regenerated in each area was measured with a micromanipulator, and expressed by the mean remainder of hair length (mm) between the hair length in the area which had been applied with a sample solution and that in the area which had been untreated.
In addition, it has been known that the growth rates of hairs in the bisymmetrical dorsum surfaces about the vertebral column of a rabbit is in the same level, and those in both sexes are also in the same level.

[1] = test system: volunteers with alopecias; test: 3-month clinical test of a hair restorer lotion in volunteers with alopecias; format: in vivo, human; details: for Therapeutic efficacy (Number of volunteers) Recovery / Therapeutic efficacy (Number of volunteers) Moderate recovery / Therapeutic efficacy (Number of volunteers) Not effected / Therapeutic efficacy (Number of volunteers) Unfavorable: 3-month, lotion with 1.0 part of ingredient, 3 times a day; for Therapeutic efficacy (Number of volunteers) Recovery: hair newly regenerated, apparently free from alopecia; for Therapeutic efficacy (Number of volunteers) Moderate recovery: moderate hair regeneration, no recurrence of alopecia; for Therapeutic efficacy (Number of volunteers) Not effected: no regeneration of hair; for Therapeutic efficacy (Number of volunteers) Unfavorable: side effect or acceleration of alopecia found; for cure rate (%): percentage of volunteers with recovery and moderate recovery against total number of each group
Source text: Based on the results in Experiment 1, 20 randomly chosen volunteers with alopecias (10 men and 10 women) as the recipient received 3-month clinical test. The volunteers were 15-66 years old.
The symptom of the volunteers, who had received a pharmacotherapy or physiotherapy at a department of dermatology, were the male alopecia such as senile alopecia and alopecia prematura, and alopecia areata such as multiple alopecia areata and malignant alopecia areata.
Since the symptom of the volunteers with a slight alopecia areata may be spontaneously recovered, the volunteers with a relatively small alopecic site and those with the atrophia cutis or atrophic pores which were not clinically observed were excluded in this Experiment.
The procedure of therapeutic treatment used in this Experiment is carried out according to conventional procedure:
Forty-five parts of ethanol, 2 parts of glycerine, 55 parts of refined water, and 1.0 part of 2-O-α-D-glucosyl-L-ascorbic acid or α-glucosyl bioflavonoid prepared by the method in Example of Preparation 2, 4, 6 or 8, were mixed, and the mixture was adjusted to pH 6.7 by the addition of 6N sodium hydroxide to obtain a hair restorer for external application in lotion form. When the volunteers received a physical examination, their affected sites were applied a thin coat of the hair restorer, massaged and exposed to an artificial sunlight. Furthermore, the volunteers were instructed to apply the hair restorer to the affected sites 3 times a day at home.
As control, a hair restorer for external application containing intact L-ascorbic acid or bioflavonoid in place of 2-O-α-D-glucosyl-L-ascorbic acid or α-glucosyl bioflavonoid in the above hair restorer was used.

[2] = test system: α-glucosidase which had been extracted from a pig liver

Row | hydrolysis by α-glucosidase [2] | Compound | Mean remainder of hair length (mm) 10th (day) (rabbits) [mm] | Mean remainder of hair length (mm) 20th (day) (rabbits) [mm] | Mean remainder of hair length (mm) 30th (day) (rabbits) [mm] | Therapeutic efficacy (Number of volunteers) Recovery [1] | Therapeutic efficacy (Number of volunteers) Moderate recovery [1] | Therapeutic efficacy (Number of volunteers) Not effected [1] | Therapeutic efficacy (Number of volunteers) Unfavorable [1] | cure rate (%) [1] [%]
1 | – | O=C1O[C@H]([C@@H](O)CO)C(O)=C1O[C@H]1O[C@H](CO)[C@@H](O)[C@H](O)[C@H]1O [2-O-α-D-Glucosyl-L-ascorbic acid] | 2.4 | 6.8 | 6.9 | 6 Number of volunteers | 10 Number of volunteers | 4 Number of volunteers | 0 Number of volunteers | 80
2 | – | COc1ccc(C2CC(=O)c3c(O)cc(OC4OC(COC5OC(C)C(O)C(O)C5O)C(O)C(O)C4O)cc3O2)cc1O (stereo not drawn) [Hesperidin, reference compound] | 0.1 | 0.5 | 0.2 | 0 Number of volunteers | 3 Number of volunteers | 12 Number of volunteers | 5 Number of volunteers | –
3 | – | O=C1O[C@H]([C@@H](O)CO)C(O)=C1O [L-Ascorbic acid, L-ascorbic acid, reference compound] | 0.1 | -0.2 | 0.5 | 0 Number of volunteers | 3 Number of volunteers | 11 Number of volunteers | 6 Number of volunteers | –
4 | – | C[C@@H]1O[C@@H](O[C@H]2[C@H](Oc3cc(O)c4c(c3)O[C@H](c3ccc(O)cc3)CC4=O)O[C@H](CO)[C@@H](O)[C@@H]2O)[C@H](O)[C@H](O)[C@H]1O [Naringin, reference compound] | 0.1 | 0.5 | -0.2 | 0 Number of volunteers | 5 Number of volunteers | 10 Number of volunteers | 5 Number of volunteers | –
5 | – | C[C@@H]1O[C@@H](OC[C@H]2O[C@@H](Oc3c(-c4ccc(O)c(O)c4)oc4cc(O)cc(O)c4c3=O)[C@H](O)[C@@H](O)[C@@H]2O)[C@H](O)[C@H](O)[C@H]1O [Rutin, 3-[[6-O-(6-deoxy-α-L-mannopyranosyl)-β-D-glucopyranosyl)]oxy-2-(3,4-dihydroxyphenyl)-5,7-dihydroxy-4H-1-benzopyran-4-one, reference compound] | 0.3 | 0.9 | 0.5 | 0 Number of volunteers | 4 Number of volunteers | 13 Number of volunteers | 3 Number of volunteers | –
6 | formed hesperidin and D-glucose | α-Glucosyl hesperidin | 2.3 | 7.4 | 6.7 | 4 Number of volunteers | 11 Number of volunteers | 5 Number of volunteers | 0 Number of volunteers | 75
7 | hydrolyzed into rutin and D-glucose | α-Glucosyl rutin | 2.5 | 8.2 | 7.6 | 6 Number of volunteers | 12 Number of volunteers | 2 Number of volunteers | 0 Number of volunteers | 90

Row | Compound | hydrolysis by α-glucosidase [2] | Mean remainder of hair length (mm) 10th (day) (rabbits) [mm] | Mean remainder of hair length (mm) 20th (day) (rabbits) [mm] | Mean remainder of hair length (mm) 30th (day) (rabbits) [mm] | Therapeutic efficacy (Number of volunteers) Recovery [1] | Therapeutic efficacy (Number of volunteers) Moderate recovery [1] | Therapeutic efficacy (Number of volunteers) Not effected [1] | Therapeutic efficacy (Number of volunteers) Unfavorable [1] | cure rate (%) [1] [%]
8 | α-Glucosyl naringin | hydrolyzed the α-glucosyl naringin into naringin and D-glucose | 2.1 | 6.6 | 6.3 | 4 Number of volunteers | 9 Number of volunteers | 7 Number of volunteers | 0 Number of volunteers | 65
